{"source": "patent US20100151572A1", "about": "“ANTI-TUMORAL COMPOSITIONS METHODS” (priority 2005, published 2010)", "origin": "cited, not measured here", "key": {"E. coli PNP": {"target": "E. coli PNP (Escherichia coli, UniProt P0ABP8)", "sequence (P0ABP8 whole entry)": "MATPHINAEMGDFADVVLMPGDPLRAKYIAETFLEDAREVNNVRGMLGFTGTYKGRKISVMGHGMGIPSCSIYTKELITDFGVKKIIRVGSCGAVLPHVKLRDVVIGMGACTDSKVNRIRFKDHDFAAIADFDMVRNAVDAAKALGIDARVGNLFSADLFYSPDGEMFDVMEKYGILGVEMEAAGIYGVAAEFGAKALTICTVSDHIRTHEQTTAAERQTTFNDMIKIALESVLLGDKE", "conditions": "abrogates E. coli PNP activity; cited from earlier work"}, "human enzyme (PNP)": {"target": "T1, human enzyme (PNP) (Homo sapiens, UniProt P00491)", "T1 sequence (P00491 1-289)": "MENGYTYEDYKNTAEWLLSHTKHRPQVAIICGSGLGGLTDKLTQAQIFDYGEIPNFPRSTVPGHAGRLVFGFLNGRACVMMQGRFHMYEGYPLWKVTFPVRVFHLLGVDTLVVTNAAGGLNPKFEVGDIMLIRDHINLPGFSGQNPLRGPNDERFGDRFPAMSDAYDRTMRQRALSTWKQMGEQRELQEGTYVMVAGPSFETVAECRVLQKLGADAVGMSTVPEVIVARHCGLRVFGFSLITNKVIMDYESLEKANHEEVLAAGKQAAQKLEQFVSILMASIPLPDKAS", "conditions": "cited from earlier work"}}, "data": [{"smiles": "Nc1ncnc2c([C@@H]3O[C@H](CO)[C@@H](O)[C@H]3O)[nH]nc12", "note": "[Formycin A]", "values": [{"measurement": "Ki", "setting": "E. coli PNP", "result": 5, "unit": "µM"}, {"measurement": "activity against the human enzyme", "setting": "human enzyme (PNP)", "result": "inactive"}]}]}
